Values joined by “and” are separate entries in the source; they are usually repeats but may differ in a detail not shown here. Equal entries are not always repeated.
tested on: Escherichia coli; test: Broth microdilution MIC, Example 7 (NCL812 and analogues); type: cell-based; conditions: E. coli; 24 hours; duplicate lines per compound

Compound | MIC (μg/ml) at 24 hours, E. coli
Cl.N=C(NN=Cc1ccc(O)c([N+](=O)[O-])c1)NN=Cc1ccc(O)c([N+](=O)[O-])c1 [NCL 122] | >128 µg/mL
Cl.N=C(NN=Cc1ccc(F)c(F)c1)NN=Cc1ccc(F)c(F)c1 [NCL 123] | >128 µg/mL
Cl.N=C(NN=Cc1c(O)ccc2ccccc12)NN=Cc1c(O)ccc2ccccc12 [NCL 124] | >128 µg/mL
COc1ccc(C=NNC(=N)NN=Cc2ccc(OC)c(O)c2)cc1O.Cl [NCL 125] | >128 µg/mL
C#Cc1cccc(C=NNC(=N)NN=Cc2cccc(C#C)c2)c1.Cl [NCL 126] | >128 µg/mL
Cl.N=C(N/N=C/c1ccc(Cl)cc1Cl)N/N=C/c1ccc(Cl)cc1Cl [NCL 127] | >128 µg/mL
Cl.N=C(N/N=C/c1c(F)c(F)c(F)c(F)c1F)N/N=C/c1c(F)c(F)c(F)c(F)c1F [NCL 128] | >128 µg/mL
Cl.N=C(N/N=C/c1ccccc1Br)N/N=C/c1ccccc1Br [NCL 129] | >128 µg/mL
COc1cc(C=NNC(=N)NN=Cc2cc(Br)c(OC)c(OC)c2)cc(Br)c1OC.Cl [NCL 130] | >128 µg/mL
Cl.N=C(NN=Cc1cccc(Br)c1)NN=Cc1cccc(Br)c1 [NCL 131] | >128 µg/mL
Cl.N=C(NN=CC1=C(Cl)c2cc(F)ccc2OC1)NN=CC1=C(Cl)c2cc(F)ccc2OC1 [NCL 132] | >128 µg/mL

tested on: Pseudomonas aeruginosa; test: as above; type: cell-based; conditions: P. aeruginosa; 24 hours; duplicate lines per compound

Compound | MIC (μg/ml) at 24 hours, P. aeruginosa
Cl.N=C(NN=Cc1ccc(O)c([N+](=O)[O-])c1)NN=Cc1ccc(O)c([N+](=O)[O-])c1 [NCL 122] | >128 µg/mL
Cl.N=C(NN=Cc1ccc(F)c(F)c1)NN=Cc1ccc(F)c(F)c1 [NCL 123] | >128 µg/mL
Cl.N=C(NN=Cc1c(O)ccc2ccccc12)NN=Cc1c(O)ccc2ccccc12 [NCL 124] | >128 µg/mL
COc1ccc(C=NNC(=N)NN=Cc2ccc(OC)c(O)c2)cc1O.Cl [NCL 125] | >128 µg/mL
C#Cc1cccc(C=NNC(=N)NN=Cc2cccc(C#C)c2)c1.Cl [NCL 126] | >128 µg/mL
Cl.N=C(N/N=C/c1ccc(Cl)cc1Cl)N/N=C/c1ccc(Cl)cc1Cl [NCL 127] | >128 µg/mL
Cl.N=C(N/N=C/c1c(F)c(F)c(F)c(F)c1F)N/N=C/c1c(F)c(F)c(F)c(F)c1F [NCL 128] | >128 µg/mL
Cl.N=C(N/N=C/c1ccccc1Br)N/N=C/c1ccccc1Br [NCL 129] | >128 µg/mL
COc1cc(C=NNC(=N)NN=Cc2cc(Br)c(OC)c(OC)c2)cc(Br)c1OC.Cl [NCL 130] | >128 µg/mL
Cl.N=C(NN=Cc1cccc(Br)c1)NN=Cc1cccc(Br)c1 [NCL 131] | >128 µg/mL
Cl.N=C(NN=CC1=C(Cl)c2cc(F)ccc2OC1)NN=CC1=C(Cl)c2cc(F)ccc2OC1 [NCL 132] | >128 µg/mL

tested on: MRSA; test: as above; type: cell-based, Staphylococcus aureus; conditions: MRSA 1; 24 hours; duplicate lines per compound
In short: (§1)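 MICs in μg/ml were read as growth inhibition by eye, checked at 600 nm absorbance against drug-free wells, following CLSI broth microdilution. Strains: two MRSA, two VRE; duplicates, repeated once more when results diverged beyond one dilution step.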

Compound | MIC (μg/ml) at 24 hours, MRSA 1
Cl.N=C(NN=Cc1ccc(O)c([N+](=O)[O-])c1)NN=Cc1ccc(O)c([N+](=O)[O-])c1 [NCL 122] | >128 µg/mL
Cl.N=C(NN=Cc1ccc(F)c(F)c1)NN=Cc1ccc(F)c(F)c1 [NCL 123] | 16 µg/mL and 32 µg/mL
Cl.N=C(NN=Cc1c(O)ccc2ccccc12)NN=Cc1c(O)ccc2ccccc12 [NCL 124] | >128 µg/mL
COc1ccc(C=NNC(=N)NN=Cc2ccc(OC)c(O)c2)cc1O.Cl [NCL 125] | >128 µg/mL
C#Cc1cccc(C=NNC(=N)NN=Cc2cccc(C#C)c2)c1.Cl [NCL 126] | >128 µg/mL
Cl.N=C(N/N=C/c1ccc(Cl)cc1Cl)N/N=C/c1ccc(Cl)cc1Cl [NCL 127] | >128 µg/mL
Cl.N=C(N/N=C/c1c(F)c(F)c(F)c(F)c1F)N/N=C/c1c(F)c(F)c(F)c(F)c1F [NCL 128] | >128 µg/mL
Cl.N=C(N/N=C/c1ccccc1Br)N/N=C/c1ccccc1Br [NCL 129] | >128 µg/mL
COc1cc(C=NNC(=N)NN=Cc2cc(Br)c(OC)c(OC)c2)cc(Br)c1OC.Cl [NCL 130] | >128 µg/mL
Cl.N=C(NN=Cc1cccc(Br)c1)NN=Cc1cccc(Br)c1 [NCL 131] | >128 µg/mL
Cl.N=C(NN=CC1=C(Cl)c2cc(F)ccc2OC1)NN=CC1=C(Cl)c2cc(F)ccc2OC1 [NCL 132] | >128 µg/mL

same assay, conditions: MRSA 2; 24 hours; duplicate lines per compound

Compound | MIC (μg/ml) at 24 hours, MRSA 2
Cl.N=C(NN=Cc1ccc(O)c([N+](=O)[O-])c1)NN=Cc1ccc(O)c([N+](=O)[O-])c1 [NCL 122] | >128 µg/mL
Cl.N=C(NN=Cc1ccc(F)c(F)c1)NN=Cc1ccc(F)c(F)c1 [NCL 123] | 4 µg/mL and 8 µg/mL
Cl.N=C(NN=Cc1c(O)ccc2ccccc12)NN=Cc1c(O)ccc2ccccc12 [NCL 124] | >128 µg/mL
COc1ccc(C=NNC(=N)NN=Cc2ccc(OC)c(O)c2)cc1O.Cl [NCL 125] | >128 µg/mL
C#Cc1cccc(C=NNC(=N)NN=Cc2cccc(C#C)c2)c1.Cl [NCL 126] | >128 µg/mL
Cl.N=C(N/N=C/c1ccc(Cl)cc1Cl)N/N=C/c1ccc(Cl)cc1Cl [NCL 127] | >128 µg/mL
Cl.N=C(N/N=C/c1c(F)c(F)c(F)c(F)c1F)N/N=C/c1c(F)c(F)c(F)c(F)c1F [NCL 128] | >128 µg/mL
Cl.N=C(N/N=C/c1ccccc1Br)N/N=C/c1ccccc1Br [NCL 129] | >128 µg/mL
COc1cc(C=NNC(=N)NN=Cc2cc(Br)c(OC)c(OC)c2)cc(Br)c1OC.Cl [NCL 130] | >128 µg/mL
Cl.N=C(NN=Cc1cccc(Br)c1)NN=Cc1cccc(Br)c1 [NCL 131] | >128 µg/mL
Cl.N=C(NN=CC1=C(Cl)c2cc(F)ccc2OC1)NN=CC1=C(Cl)c2cc(F)ccc2OC1 [NCL 132] | >128 µg/mL

tested on: VRE; test: as above; type: cell-based, Enterococcus spp.; conditions: VRE 1; 24 hours; duplicate lines per compound
In short: as §1

Compound | MIC (μg/ml) at 24 hours, VRE 1
Cl.N=C(NN=Cc1ccc(O)c([N+](=O)[O-])c1)NN=Cc1ccc(O)c([N+](=O)[O-])c1 [NCL 122] | >128 µg/mL
Cl.N=C(NN=Cc1ccc(F)c(F)c1)NN=Cc1ccc(F)c(F)c1 [NCL 123] | 4 µg/mL
Cl.N=C(NN=Cc1c(O)ccc2ccccc12)NN=Cc1c(O)ccc2ccccc12 [NCL 124] | >128 µg/mL
COc1ccc(C=NNC(=N)NN=Cc2ccc(OC)c(O)c2)cc1O.Cl [NCL 125] | >128 µg/mL
C#Cc1cccc(C=NNC(=N)NN=Cc2cccc(C#C)c2)c1.Cl [NCL 126] | 4 µg/mL and 8 µg/mL
Cl.N=C(N/N=C/c1ccc(Cl)cc1Cl)N/N=C/c1ccc(Cl)cc1Cl [NCL 127] | >128 µg/mL
Cl.N=C(N/N=C/c1c(F)c(F)c(F)c(F)c1F)N/N=C/c1c(F)c(F)c(F)c(F)c1F [NCL 128] | >128 µg/mL
Cl.N=C(N/N=C/c1ccccc1Br)N/N=C/c1ccccc1Br [NCL 129] | >128 µg/mL
COc1cc(C=NNC(=N)NN=Cc2cc(Br)c(OC)c(OC)c2)cc(Br)c1OC.Cl [NCL 130] | >128 µg/mL
Cl.N=C(NN=Cc1cccc(Br)c1)NN=Cc1cccc(Br)c1 [NCL 131] | 4 µg/mL
Cl.N=C(NN=CC1=C(Cl)c2cc(F)ccc2OC1)NN=CC1=C(Cl)c2cc(F)ccc2OC1 [NCL 132] | >128 µg/mL

same assay, conditions: VRE 2; 24 hours; duplicate lines per compound

Compound | MIC (μg/ml) at 24 hours, VRE 2
Cl.N=C(NN=Cc1ccc(O)c([N+](=O)[O-])c1)NN=Cc1ccc(O)c([N+](=O)[O-])c1 [NCL 122] | >128 µg/mL
Cl.N=C(NN=Cc1ccc(F)c(F)c1)NN=Cc1ccc(F)c(F)c1 [NCL 123] | 4 µg/mL
Cl.N=C(NN=Cc1c(O)ccc2ccccc12)NN=Cc1c(O)ccc2ccccc12 [NCL 124] | >128 µg/mL
COc1ccc(C=NNC(=N)NN=Cc2ccc(OC)c(O)c2)cc1O.Cl [NCL 125] | >128 µg/mL
C#Cc1cccc(C=NNC(=N)NN=Cc2cccc(C#C)c2)c1.Cl [NCL 126] | >128 µg/mL
Cl.N=C(N/N=C/c1ccc(Cl)cc1Cl)N/N=C/c1ccc(Cl)cc1Cl [NCL 127] | >128 µg/mL
Cl.N=C(N/N=C/c1c(F)c(F)c(F)c(F)c1F)N/N=C/c1c(F)c(F)c(F)c(F)c1F [NCL 128] | >128 µg/mL
Cl.N=C(N/N=C/c1ccccc1Br)N/N=C/c1ccccc1Br [NCL 129] | >128 µg/mL
COc1cc(C=NNC(=N)NN=Cc2cc(Br)c(OC)c(OC)c2)cc(Br)c1OC.Cl [NCL 130] | >128 µg/mL
Cl.N=C(NN=Cc1cccc(Br)c1)NN=Cc1cccc(Br)c1 [NCL 131] | >128 µg/mL
Cl.N=C(NN=CC1=C(Cl)c2cc(F)ccc2OC1)NN=CC1=C(Cl)c2cc(F)ccc2OC1 [NCL 132] | >128 µg/mL

Reference: US10253002B2, “Compounds and methods of treating infections” (Neoculi Pty Ltd., priority 2013, dated 2019)
